# How the values were obtained:
# Type in all cases: in vitro ADME
# [1] = Metabolism in human intestinal S9 fraction; settings: [3H]islatravir 5 µM, M4 the only metabolite detected
# CYP1A2 = molecular target: T1, CYP1A2 (Homo sapiens, UniProt P05177); assay: Reversible CYP inhibition in pooled human liver microsomes
# T1 sequence (P05177 1-516): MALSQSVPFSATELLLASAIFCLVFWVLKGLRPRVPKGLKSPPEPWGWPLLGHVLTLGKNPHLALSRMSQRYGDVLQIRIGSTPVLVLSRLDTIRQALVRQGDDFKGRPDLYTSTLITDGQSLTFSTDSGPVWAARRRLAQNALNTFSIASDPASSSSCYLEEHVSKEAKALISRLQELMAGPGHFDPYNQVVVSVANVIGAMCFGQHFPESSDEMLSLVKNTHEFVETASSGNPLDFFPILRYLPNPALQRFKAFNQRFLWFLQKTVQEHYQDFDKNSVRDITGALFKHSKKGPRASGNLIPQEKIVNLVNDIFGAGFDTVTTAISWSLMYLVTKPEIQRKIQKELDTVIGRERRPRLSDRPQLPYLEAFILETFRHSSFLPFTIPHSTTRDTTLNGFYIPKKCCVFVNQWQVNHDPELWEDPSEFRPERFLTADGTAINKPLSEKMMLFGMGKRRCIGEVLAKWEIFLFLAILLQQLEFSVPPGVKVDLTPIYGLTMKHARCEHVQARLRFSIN
# MATE2K = molecular target: T2, MATE2K (Homo sapiens, UniProt Q86VL8); assay: Inhibition of transporter-mediated probe uptake in MDCKII-MATE2K cells
# T2 construct: expressed in transfected cells; host or cells: MDCKII
# [2] = Plasma protein binding by equilibrium dialysis, human plasma
# MDR1 P-gp = MDR1 P-gp (Homo sapiens, UniProt P08183); assay: Uptake in MDR1 P-gp-containing Sf9 membrane vesicles (substrate); design: expressed in transfected cells
# MATE1 [3] = molecular target: T3, MATE1 (Homo sapiens, UniProt Q96FL8); assay: Inhibition of transporter-mediated probe uptake in CHO-K1-MATE1 cells
# T3 construct: expressed in transfected cells; host or cells: CHO-K1
# T3 sequence (Q96FL8 1-570): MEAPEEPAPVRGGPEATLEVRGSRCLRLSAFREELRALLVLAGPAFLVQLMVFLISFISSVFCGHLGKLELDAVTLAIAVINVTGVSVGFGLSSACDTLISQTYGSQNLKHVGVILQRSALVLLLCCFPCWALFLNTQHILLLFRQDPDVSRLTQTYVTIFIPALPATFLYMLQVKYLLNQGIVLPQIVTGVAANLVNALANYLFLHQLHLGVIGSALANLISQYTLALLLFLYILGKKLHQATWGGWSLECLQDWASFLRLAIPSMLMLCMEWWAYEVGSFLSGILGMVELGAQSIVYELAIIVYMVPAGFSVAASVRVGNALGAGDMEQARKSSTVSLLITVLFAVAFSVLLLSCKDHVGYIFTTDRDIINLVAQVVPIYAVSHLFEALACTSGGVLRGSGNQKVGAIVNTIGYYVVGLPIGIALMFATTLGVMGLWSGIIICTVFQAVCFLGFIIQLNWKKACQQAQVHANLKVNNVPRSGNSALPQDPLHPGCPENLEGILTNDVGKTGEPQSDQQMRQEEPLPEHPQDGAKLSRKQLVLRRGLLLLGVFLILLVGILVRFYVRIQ
# [4] = Plasma protein binding by equilibrium dialysis, rabbit plasma; settings: pH 7.4
# MATE1 [5] = molecular target: T3, MATE1; assay: Islatravir uptake as substrate, CHO-K1 vs CHO-K1-MATE1 cells
# [6] = molecular target: T4, recombinant human adenosine deaminase (ADA) (Homo sapiens, UniProt P00813); assay: Metabolism and enzyme kinetics with recombinant human ADA
# T4 construct: purchased Novus Biologicals, LLC
# OCT2 = molecular target: T5, OCT2 (Homo sapiens, UniProt O15244); assay: Inhibition of transporter-mediated probe uptake in CHO-K1-OCT2 cells
# T5 construct: expressed in transfected cells; host or cells: CHO-K1
# T5 sequence (O15244 1-555): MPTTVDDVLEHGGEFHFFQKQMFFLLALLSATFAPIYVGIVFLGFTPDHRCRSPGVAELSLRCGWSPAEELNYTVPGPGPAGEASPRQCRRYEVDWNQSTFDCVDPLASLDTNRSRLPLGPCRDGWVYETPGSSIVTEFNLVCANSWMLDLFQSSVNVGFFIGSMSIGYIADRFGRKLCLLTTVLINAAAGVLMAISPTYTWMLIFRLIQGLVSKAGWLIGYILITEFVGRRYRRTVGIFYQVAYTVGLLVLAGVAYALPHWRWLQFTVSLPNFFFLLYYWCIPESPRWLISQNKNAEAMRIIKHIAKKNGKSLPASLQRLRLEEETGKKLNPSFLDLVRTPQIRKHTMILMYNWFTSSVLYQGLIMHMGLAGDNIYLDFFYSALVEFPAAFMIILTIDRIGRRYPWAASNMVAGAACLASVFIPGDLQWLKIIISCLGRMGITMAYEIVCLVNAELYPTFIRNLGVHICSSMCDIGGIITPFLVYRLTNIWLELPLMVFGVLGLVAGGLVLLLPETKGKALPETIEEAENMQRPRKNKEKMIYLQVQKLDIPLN
# MRP4 = molecular target: T6, MRP4 (Homo sapiens, UniProt O15439); assay: Inhibition of ATP-dependent probe uptake in Sf9 membrane vesicles; settings: MRP4-mediated ATP-dependent uptake of folic acid
# T6 construct: purchased Thermo Fisher Scientific; host or cells: Sf9
# [7] = [14C]islatravir 5 µM, presence of ATP, 10 min, mean ± standard deviation
# MDR1 P-gp, sequence (P08183 whole entry): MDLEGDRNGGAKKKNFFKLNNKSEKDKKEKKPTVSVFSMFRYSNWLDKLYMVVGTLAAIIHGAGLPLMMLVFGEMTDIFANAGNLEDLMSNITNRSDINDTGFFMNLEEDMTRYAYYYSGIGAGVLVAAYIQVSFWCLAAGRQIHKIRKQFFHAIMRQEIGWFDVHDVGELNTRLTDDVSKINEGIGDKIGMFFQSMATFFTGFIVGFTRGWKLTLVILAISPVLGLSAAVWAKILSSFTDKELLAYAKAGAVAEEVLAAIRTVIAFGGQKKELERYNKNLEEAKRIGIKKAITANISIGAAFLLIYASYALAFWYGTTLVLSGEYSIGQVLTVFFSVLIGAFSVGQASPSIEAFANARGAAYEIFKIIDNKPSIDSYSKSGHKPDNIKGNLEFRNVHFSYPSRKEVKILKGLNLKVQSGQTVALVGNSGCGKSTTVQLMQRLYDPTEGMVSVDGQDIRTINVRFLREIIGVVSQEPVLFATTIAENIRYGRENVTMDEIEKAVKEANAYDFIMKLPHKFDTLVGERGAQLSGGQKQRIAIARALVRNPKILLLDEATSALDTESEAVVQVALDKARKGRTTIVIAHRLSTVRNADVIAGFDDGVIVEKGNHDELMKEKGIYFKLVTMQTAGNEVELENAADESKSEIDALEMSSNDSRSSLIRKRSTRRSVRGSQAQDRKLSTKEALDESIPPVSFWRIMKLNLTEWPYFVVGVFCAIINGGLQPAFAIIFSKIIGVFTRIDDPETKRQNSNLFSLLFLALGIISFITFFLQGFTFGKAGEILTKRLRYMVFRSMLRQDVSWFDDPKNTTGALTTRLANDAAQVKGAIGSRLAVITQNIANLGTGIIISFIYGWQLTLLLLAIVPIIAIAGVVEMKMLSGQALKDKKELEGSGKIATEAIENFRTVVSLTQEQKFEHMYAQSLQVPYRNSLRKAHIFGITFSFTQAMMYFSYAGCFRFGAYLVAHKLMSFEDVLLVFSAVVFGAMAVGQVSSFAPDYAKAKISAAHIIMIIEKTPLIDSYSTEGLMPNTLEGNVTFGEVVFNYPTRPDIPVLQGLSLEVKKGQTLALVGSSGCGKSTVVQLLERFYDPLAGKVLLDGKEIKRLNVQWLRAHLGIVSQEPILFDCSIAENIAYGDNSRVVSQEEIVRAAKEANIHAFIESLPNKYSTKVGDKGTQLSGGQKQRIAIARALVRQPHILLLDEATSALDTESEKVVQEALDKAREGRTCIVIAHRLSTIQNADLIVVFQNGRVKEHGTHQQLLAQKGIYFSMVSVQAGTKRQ
# T2 sequence (Q86VL8 1-566 isoform Q86VL8-3): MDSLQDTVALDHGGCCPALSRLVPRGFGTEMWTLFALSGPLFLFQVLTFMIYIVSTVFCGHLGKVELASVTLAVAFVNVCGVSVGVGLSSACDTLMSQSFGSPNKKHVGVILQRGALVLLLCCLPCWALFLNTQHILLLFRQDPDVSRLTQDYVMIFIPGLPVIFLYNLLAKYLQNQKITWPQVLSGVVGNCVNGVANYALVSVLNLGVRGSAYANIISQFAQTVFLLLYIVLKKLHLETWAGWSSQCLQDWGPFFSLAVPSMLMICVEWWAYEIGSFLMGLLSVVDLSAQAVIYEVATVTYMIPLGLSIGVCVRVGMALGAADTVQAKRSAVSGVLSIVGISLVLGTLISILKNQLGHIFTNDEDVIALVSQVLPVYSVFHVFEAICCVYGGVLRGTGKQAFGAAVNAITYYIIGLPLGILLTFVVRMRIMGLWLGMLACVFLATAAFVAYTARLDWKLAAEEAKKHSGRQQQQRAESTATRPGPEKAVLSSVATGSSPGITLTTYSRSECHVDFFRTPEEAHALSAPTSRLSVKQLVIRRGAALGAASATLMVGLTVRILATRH
# T4 sequence (P00813 whole entry): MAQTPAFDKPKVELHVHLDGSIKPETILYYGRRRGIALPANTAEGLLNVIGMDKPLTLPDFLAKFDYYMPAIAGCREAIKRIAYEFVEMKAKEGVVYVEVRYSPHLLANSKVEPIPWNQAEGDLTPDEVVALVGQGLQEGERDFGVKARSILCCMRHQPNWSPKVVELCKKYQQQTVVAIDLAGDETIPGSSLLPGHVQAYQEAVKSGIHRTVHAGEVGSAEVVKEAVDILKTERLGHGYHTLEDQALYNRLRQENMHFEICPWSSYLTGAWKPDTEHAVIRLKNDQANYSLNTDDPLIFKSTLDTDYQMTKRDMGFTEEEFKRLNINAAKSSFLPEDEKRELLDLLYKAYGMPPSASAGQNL
# T6 sequence (O15439 whole entry): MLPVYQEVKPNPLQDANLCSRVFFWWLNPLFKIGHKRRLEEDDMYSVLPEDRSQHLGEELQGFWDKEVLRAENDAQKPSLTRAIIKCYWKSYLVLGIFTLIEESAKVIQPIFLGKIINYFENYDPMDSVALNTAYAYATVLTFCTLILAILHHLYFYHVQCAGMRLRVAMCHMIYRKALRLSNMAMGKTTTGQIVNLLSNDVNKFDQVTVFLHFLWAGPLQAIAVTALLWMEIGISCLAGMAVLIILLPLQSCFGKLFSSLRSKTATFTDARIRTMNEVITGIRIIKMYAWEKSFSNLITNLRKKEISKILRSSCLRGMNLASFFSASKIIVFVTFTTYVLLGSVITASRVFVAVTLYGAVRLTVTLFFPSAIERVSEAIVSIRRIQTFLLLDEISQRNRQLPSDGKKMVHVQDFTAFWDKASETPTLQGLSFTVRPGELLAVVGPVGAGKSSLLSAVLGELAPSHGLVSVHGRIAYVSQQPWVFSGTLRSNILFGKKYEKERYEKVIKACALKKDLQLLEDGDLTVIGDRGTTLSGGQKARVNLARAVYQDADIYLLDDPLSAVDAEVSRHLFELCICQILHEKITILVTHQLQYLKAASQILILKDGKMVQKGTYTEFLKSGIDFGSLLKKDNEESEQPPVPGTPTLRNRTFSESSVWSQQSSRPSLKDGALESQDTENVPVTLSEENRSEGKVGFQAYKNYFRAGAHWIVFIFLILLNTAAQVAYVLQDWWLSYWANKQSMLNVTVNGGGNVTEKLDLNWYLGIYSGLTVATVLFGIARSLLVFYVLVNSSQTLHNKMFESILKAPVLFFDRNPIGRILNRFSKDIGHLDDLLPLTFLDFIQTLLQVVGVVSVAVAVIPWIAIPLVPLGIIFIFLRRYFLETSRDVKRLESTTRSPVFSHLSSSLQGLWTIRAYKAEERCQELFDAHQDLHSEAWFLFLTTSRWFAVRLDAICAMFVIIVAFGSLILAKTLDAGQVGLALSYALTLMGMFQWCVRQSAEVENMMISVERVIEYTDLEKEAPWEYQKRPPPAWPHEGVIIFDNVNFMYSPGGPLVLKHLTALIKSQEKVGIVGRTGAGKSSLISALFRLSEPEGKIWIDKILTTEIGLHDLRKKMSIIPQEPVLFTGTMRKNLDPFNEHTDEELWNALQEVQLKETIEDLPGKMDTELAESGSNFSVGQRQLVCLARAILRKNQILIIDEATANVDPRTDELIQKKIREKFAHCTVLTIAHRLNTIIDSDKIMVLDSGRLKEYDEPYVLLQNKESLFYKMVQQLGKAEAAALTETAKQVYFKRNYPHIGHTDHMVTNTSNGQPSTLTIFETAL
smiles,measurement,setting,value
"C#C[C@]1(CO)O[C@@H](n2cnc3c(N)nc(F)nc32)C[C@@H]1O [Islatravir, 4′-Ethynyl-2-fluoro-2′-deoxyadenosine]",turnover,[1],low turnover
same,DDI Potential,"CYP1A2; CYP1A2 reversible inhibition, FDA, EMA, PMDA guidance",Low risk
same,"Maximum Unbound Plasma Concentration (Imax,u) to Ki,u Ratio","CYP1A2; CYP1A2 reversible, 60 mg, Cmax 1.01 µM, fu,p 0.96, Ki,u = IC50/2",<0.019 µM
same,IC50,"CYP1A2; reversible, CYP1A2 phenacetin O-deethylation, read-out: Islatravir IC50",> 100 µM
same,DDI Potential,"MATE2K; MATE2K inhibition, FDA, EMA, PMDA guidance",Low risk
same,IC50,"MATE2K; MATE2K, metformin uptake, read-out: Islatravir IC50",> 75 µM
same,"Maximum Unbound Plasma Concentration (Imax,u) to IC50 Ratio","MATE2K; MATE2K, 60 mg, Cmax 1.01 µM, fu,p 0.96",<0.013 µM
same,concentration dependence of binding to plasma proteins,"[2]; 0.1 to 10 µM, all species tested",did not exhibit concentration dependence
same,"fraction unbound at 24 h, 0.1 µM","[2]; pH 7.4, human plasma, 0.1 µM islatravir, ± standard deviation",0.96 ± 0.04
same,uptake into control vesicles,MDR1 P-gp; [7],5.7 ± 2.1 pmole/mg protein
same,uptake into membrane vesicles containing MDR1 P-gp,MDR1 P-gp; [7],3.7 ± 1.3 pmole/mg protein
same,MDR1 P-gp substrate assessment,MDR1 P-gp; uptake not ATP-dependent,not a substrate of MDR1 P-gp
same,IC50,"MATE1 [3]; MATE1, metformin uptake, read-out: Islatravir IC50",> 75 µM
same,"Maximum Unbound Plasma Concentration (Imax,u) to IC50 Ratio","MATE1 [3]; MATE1, 60 mg, Cmax 1.01 µM, fu,p 0.96",<0.013 µM
same,DDI Potential,"MATE1 [3]; MATE1 inhibition, FDA, EMA, PMDA guidance",Low risk
same,"fraction unbound at 24 h, 0.1 µM",[4],> 0.84
same,Islatravir Uptake Transporter-Expressing Cells,"MATE1 [5]; CHO-K1-MATE1, 2 µM [14C]islatravir, 20 min, mean ± SD, n = 3",2.94 ± 0.20 pmole/10^6 Cells
same,Fold-Difference,"MATE1 [5]; MATE1, uptake into transporter-expressing cells to control cells, 20 min",1.01
same,Islatravir Uptake Control Cells,"MATE1 [5]; MATE1 row, CHO-K1 control cells, 2 µM [14C]islatravir, 20 min, mean ± SD, n = 3",2.90 ± 0.27 pmole/10^6 Cells
same,Conclusions,MATE1 [5]; MATE1 substrate assessment,Non-substrate
same,ADA-dependent deamination,"[6]; 50 µM, 3 h, 1 unit/mL recombinant human ADA",very slow ADA-dependent deamination to M4
same,Km,"[6]; M4 formation, linear over 1-250 µM islatravir, read-out: Michaelis constant [Km]",> 250 µM
same,inhibition at 100 µM,"OCT2; CHO-K1-OCT2 cells, probe metformin, 100 µM islatravir",15%
same,IC50,"OCT2; OCT2-mediated metformin uptake, read-out: Islatravir IC50",> 100 µM
same,"Maximum Unbound Plasma Concentration (Imax,u) to IC50 Ratio","OCT2; OCT2, 60 mg, Cmax 1.01 µM, fu,p 0.96",<0.010 µM
same,DDI Potential,"OCT2; OCT2 inhibition, FDA, EMA, PMDA guidance",Low risk
same,IC50,MRP4,> 100 µM

# — PMC8402619 (Viruses, 2021)
